Assay type in all cases: in vivo
Test [1] deals with Roemeria hybrida (Weed code—is ROEHY). Put plainly: Field trial, weed control of Roemeria hybrida in wheat. To be noted: in Triticum aesti, 15 DAA; dose 0.1 Kg/ha (bensulfuron methyl + metsulfuron methyl), 2.6 l/ha (2,4D dimethylamine salt), 0.1 Kg/ha + 2.6 l/ha (mix). How it is done: (§1) Studies were conducted to compare the weed controlling activity of the combination of bensulfuron methyl, metsulfuron methyl with herbicides selected from the classes of synthetic auxins, photosystem II inhibitors, very long chain fatty acid inhibitor, carotene biosynthesis inhibitor and compare its observed efficacy with the “expected” efficacy when bensulfuron methyl and metsulfuron methyl and select individual herbicides were used to treat both dicotyledonous and monocotyledonous weeds. Any difference between the observed and “expected” efficacy could be attributed to synergy between the two compounds in the control of […] weeds. The expected efficacy of a combination of bensulfuron methyl, metsulfuron methyl with herbicides selected from the classes of synthetic auxins, photosystem II inhibitors, very long chain fatty acid inhibitor, carotene biosynthesis inhibitor was calculated using the well-established Colby method.
(§2) In the Colby method, the expected (or predicted) response of a combination of herbicides is calculated by taking the product of the observed response for each individual component of the combination when applied alone divided by 100 and subtracting this value from the sum of the observed response for each component when applied alone. […]

In test [2] the test system is Rapistrum rugosum (weed code—RASRU). Put plainly: Field trial, weed control of Rapistrum rugosum in wheat. As to conditions: in Triticum aesti. How it is done: as §1
(§3) In the Colby method, the expected (or predicted) response of a combination of herbicides is calculated by taking the product of the observed response for each individual component of the combination when applied alone divided by 100 and subtracting this value from the sum of the observed response for each component when applied alone. An unexpected enhancement in efficacy of the combination is then determined by comparing the observed response of the combination to the expected (or predicted) response as calculated from the observed response of each individual component alone. […]
(§4) The weed control activity of the individual herbicides of the invention and their combinations were evaluated on weeds such as Viola arvensis (weed code—VIOAR), Veronica persica (weed code—VERPE), Papaver rhoeas (weed code: PAPRH), Galium aparine (weed code—GALAP), Matricaria recutita weed code—MATCH), Veronica hederifolia (weed code—VERHE) and Viola arvensis (weed code—VIOAR.). […]

Test [3] relates to Viola arvensis (weed code—VIOAR). The test can be described thus: Field trial, weed control of Viola arvensis in wheat. As to conditions: in Triticum aesti. The procedure:
as §1, §3, §4

In test [4] the test system is Senecio vulgaris (weed code—SENVU). The test can be described thus: Field trial, weed control of Senecio vulgaris in wheat. To be noted: in Triticum aesti, 9 DAA; dose 0.1 Kg/ha (bensulfuron methyl + metsulfuron methyl), 2.6 l/ha (2,4D dimethylamine salt), 2.6 l/ha + 0.1 Kg/ha (mix). The procedure:
as §1, §2

Test [5] concerns Papaver rhoeas (weed code—PAPRH). Put plainly: Field trial, weed control of Papaver rhoeas in wheat. To be noted: in Triticum aesti, 12 DAA. The procedure:
as §1
In the Colby method, the expected (or predicted) response of a combination of herbicides is calculated by taking the product of the observed response for each individual component of the combination when applied alone divided by 100 and subtracting this value from the sum of the observed response for each component when applied alone. An unexpected enhancement in efficacy of the combination is then determined by comparing the observed response of the combination to the expected (or predicted) response as calculated from the observed response of each individual component alone. If the observed response of the combination is greater than the expected (or predicted) response, or stated conversely, if the difference between the observed and expected response is greater than zero, then the combination is said to be synergistic or unexpectedly effective. (Colby, S. R., Weeds, 1967(15), p. 20-22) The Colby method requires only a single dose of each herbicide applied alone and the mixture of both doses. The formula used to calculate the expected efficacy (EE) which was compared with the observed efficacy (OE) to determine the efficacy of the present invention is explained hereinbelow: EE=(B efficacy+A efficacy−(B efficacy×A efficacy)/100)
The weed control activity of the individual herbicides of the invention and their combinations were evaluated on weeds such as Viola arvensis (weed code—VIOAR), Veronica persica (weed code—VERPE), Papaver rhoeas (weed code: PAPRH), Galium aparine (weed code—GALAP), Matricaria recutita weed code—MATCH), Veronica hederifolia (weed code—VERHE) and Viola arvensis (weed code—VIOAR.). The trial was carried out in Randomized Complete Block (RCB) method, all field trials were conducted using this method. Each trial were replicated four times and conducted under GEP guidelines. Application volumes were varied for each mixture. Such field trials were carried out at various locations so as to generate independent data, the locations were chosen randomly across European nations. Bensulfuron methyl and Metsulfuron methyl and selected herbicides were sprayed according to their recommended dosage.
Further field trials were carried out to test the synergy of the combination bensulfuron methyl, metsulfuron methyl and synthetic auxin fluroxypyr. The field trials were carried out at various locations in Europe during spring. […] The target weed was Papaver rhoeas (weed code—PAPRH) and the results are recorded in the table below:
Field trials were carried out test the synergy of the combination bensulfuron methyl, metsulfuron methyl, and synthetic auxin 2,4-D. The field trials were carried out at various locations in Europe during spring. […] The target weed were Senecio vulgaris (weed code—SENVU), Rapistrum rugosum (weed code—RASRU), Papaver rhoeas (weed code—PAPRH), Viola arvensis (Weed code—VIOAR), Roemeria hybrida (Weed code—is ROEHY), Galium aparine (Weed code—GALAP) and the results are recorded in the tables 3 and 4 below: […]

Test [6] concerns Galium aparine (Weed code—GALAP). Put plainly: Field trial, weed control of Galium aparine in wheat. As to conditions: in Triticum aesti, 16 DAA, dose 0.08 g (bensulfuron methyl + metsulfuron methyl). The procedure: (§5) In the Colby method, the expected (or predicted) response of a combination of herbicides is calculated by taking the product of the observed response for each individual component of the combination when applied alone divided by 100 and subtracting this value from the sum of the observed response for each component when applied alone. An unexpected enhancement in efficacy of the combination is then determined by comparing the observed response of the combination to the expected (or predicted) response as calculated from the observed response of each individual component alone. If the observed response of the combination is greater than the expected (or predicted) response, or stated conversely, if the difference between the observed and expected response is greater than zero, then the combination is said to be synergistic or unexpectedly effective.
(§6) The trial was carried out in Randomized Complete Block (RCB) method, all field trials were conducted using this method. Each trial were replicated four times and conducted under GEP guidelines. Application volumes were varied for each mixture.

Another test relates to weeds in general (TTTTT). Put plainly: Field trial, control of weeds in general in wheat. As to conditions: in Triticum aesti, dose 50 g + 4 g (bensulfuron methyl + metsulfuron methyl); for % Weed control TTTTT, Actual: 12 DAA. The procedure:
as §5, §6

For test [7], the system named is Veronica persica (weed code—VERPE). The test can be described thus: Field trial, weed control of Veronica persica in wheat. As to conditions: in Triticum aesti, dose 50 g + 4 g (bensulfuron methyl + metsulfuron methyl), 125 g (fluroxypyr), 50 g + 4 g + 125 g (mix). The procedure:
as §1, §2

[8] abbreviates: Table 2, PAPRH, dose bensulfuron methyl 50 g, metsulfuron methyl 4 g, fluroxypyr 125 g, mix 50 g + 4 g + 125 g.
The mark [9] stands for this setting: Table 2, second PAPRH column pair, dose bensulfuron methyl 50 g, metsulfuron methyl 4 g, fluroxypyr 125 g, mix 50 g + 4 g + 125 g.

Where a name gives a salt, the structure may show the parent alone.

For the molecule `O=C(O)COc1ccc(Cl)cc1Cl` [2,4D dimethylamine salt, 2,4-Dichlorophenoxy acetic acid], the “% Weed control ROEHY, Actual” value in test [1] came to 37.5%. Besides, the “% Weed control RASRU, Actual” value in test [2] (Table 3, 12 DAA, dose 0.1 Kg/ha (bensulfuron methyl + metsulfuron methyl), 2.6 l/ha (2,4D dimethylamine salt), 2.6 l/ha + 0.1 Kg/ha (mix)) worked out at 32.4%. The “% Weed control VIOAR, Actual” value in test [3] (Table 4, 12 DAA, dose 0.1 Kg/ha (bensulfuron methyl + metsulfuron methyl), 2.6 l/ha (2,4D dimethylamine salt), 0.1 Kg/ha + 2.6 l/ha (mix)) is given as 18.8%. In addition, the “% Weed control SENVU, Actual” value in test [4] amounted to 62.5%. In addition, the “% Weed control PAPRH, Actual” value in test [5] (Table 3, dose 0.1 Kg/ha (bensulfuron methyl + metsulfuron methyl), 2.6 l/ha (2,4D dimethylamine salt), 2.6 l/ha + 0.1 Kg/ha (mix)) is listed as 37.5%.
On to `COC(=O)c1ccccc1CS(=O)(=O)NC(=O)Nc1nc(OC)cc(OC)n1` [Bensulfuron methyl, methyl α-[(4,6-dimethoxypyrimidin-2-ylcarbamoyl)sulfamoyl]-o-toluate], for which the “% Weed control PAPRH, Actual” value in test [5] (setting [8]) and in test [5] (setting [9]) was 50% throughout.
For the molecule `O=C(Nc1ccc(F)cc1F)c1cccnc1Oc1cccc(C(F)(F)F)c1` [Diflufenican, 2′,4′-difluoro-2-(α,α,α-trifluoro-m-tolyloxy)nicotinanilide], the “% Weed control GALAP, Actual” value in test [6] (Table 7, first column pair, 0.05 g (diflufenican), 0.08 g + 0.05 g (mix)) was 13%; in test [6] (Table 7, second column pair, 0.08 g (diflufenican), 0.08 g + 0.08 g (mix)), 20%. Also, the “% Weed control TTTTT, Actual” value is 11.7% in the test with weeds in general (TTTTT) (Table 6, first column pair, 0.12 g (diflufenican), 50 g + 4 g + 0.12 g (mix)) and 3.0% in the test with weeds in general (TTTTT) (Table 6, second column pair, 0.16 g (diflufenican), 50 g + 4 g + 0.16 g (mix)). In addition, the “% Weed control TTTT, Actual” value with weeds in general (TTTTT) (Table 6, third column pair, 12 DAA T, 0.16 g (diflufenican), 50 g + 4 g + 0.16 g (mix)) came to 15%.
For `Nc1c(Cl)c(F)nc(OCC(=O)O)c1Cl` [Fluroxypyr, 4-amino-3,5-dichloro-6-fluoro-2-pyridyloxyacetic acid], the “% Weed control VIOAR, Actual” value in test [3] (20 DAA, dose 50 g + 4 g (bensulfuron methyl + metsulfuron methyl), 125 g (fluroxypyr), 50 g + 4 g + 125 g (mix)) is 31%; in test [3] (57 DAA, dose 50 g + 4 g (bensulfuron methyl + metsulfuron methyl), 125 g (fluroxypyr), 50 g + 4 g + 125 g (mix)), 28%. In addition, the figures for the “% Weed control VERPE, Actual” value in test [7] (20 DAA) and in test [7] (57 DAA) were 51% and 55%, respectively. Further, the “% Weed control PAPRH, Actual” value in test [5] (setting [8]) came out at 28%; in test [5] (setting [9]), 79%.
For `Cc1cc(Cl)ccc1OCC(=O)O` [MCPA dimethylamine salt, 4-chloro-2-methylphenoxy acetic acid], the “% Weed control RASRU, Actual” value in test [2] (Table 5, 12 DAA, dose 0.1 kg/ha A (bensulfuron methyl + metsulfuron methyl), 4 l/ha (MCPA dimethylamine salt), 0.1 kg/ha A + 4 l/ha (mix)) was found to be 34.8%; in test [2] (Table 5, 56 DAA, dose 0.1 kg/ha A (bensulfuron methyl + metsulfuron methyl), 4 l/ha (MCPA dimethylamine salt), 0.1 kg/ha A + 4 l/ha (mix)) it was 88.3%. For the same molecule, in test [5] (Table 5, dose 0.1 kg/ha A (bensulfuron methyl + metsulfuron methyl), 4 l/ha (MCPA dimethylamine salt), 0.1 kg/ha A + 4 l/ha (mix)), the “% Weed control PAPRH, Actual” value stood at 63.8%.
In the case of `COC(=O)c1ccccc1S(=O)(=O)NC(=O)Nc1nc(C)nc(OC)n1` [Metsulfuron methyl, methyl 2-(4-methoxy-6-methyl-1,3,5-triazin-2-ylcarbamoylsulfamoyl)benzoate], the “% Weed control PAPRH, Actual” value in test [5] (setting [8]) amounted to 48%; in test [5] (setting [9]) it was 48.8%.

Source of the values: US11102978B2, “Herbicide combination” (priority 2016, dated 2021).
